Source: ChEMBL document CHEMBL1128075, “Chemical modification and structure-activity relationships of pyripyropenes; potent, bioavailable inhibitor of acyl-CoA: Cholesterol O-acyltransferase (ACAT)” (Bioorg Med Chem Lett, 1995)

What was measured:
[1] = biological target: T1, Sterol O-acyltransferase 2 (Rattus norvegicus, UniProt Q7TQM4); experiment: Inhibitory activity against acyl-CoA:cholesterol O-acyltransferase (ACAT)
T1 sequence (Q7TQM4 whole entry): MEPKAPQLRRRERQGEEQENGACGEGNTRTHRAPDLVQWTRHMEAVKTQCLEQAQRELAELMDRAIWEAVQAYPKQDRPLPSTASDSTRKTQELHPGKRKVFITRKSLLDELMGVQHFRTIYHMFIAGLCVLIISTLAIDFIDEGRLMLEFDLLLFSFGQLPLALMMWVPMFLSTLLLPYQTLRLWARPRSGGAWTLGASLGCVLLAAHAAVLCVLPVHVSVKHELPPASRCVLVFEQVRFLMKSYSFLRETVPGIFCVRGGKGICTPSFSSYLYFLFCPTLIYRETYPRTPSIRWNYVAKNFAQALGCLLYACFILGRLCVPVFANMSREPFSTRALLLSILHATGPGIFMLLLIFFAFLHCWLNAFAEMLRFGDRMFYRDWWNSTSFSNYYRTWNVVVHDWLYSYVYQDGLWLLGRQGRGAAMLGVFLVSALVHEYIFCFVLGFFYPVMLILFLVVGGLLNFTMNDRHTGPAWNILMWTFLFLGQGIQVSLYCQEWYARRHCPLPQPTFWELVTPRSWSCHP

Cricetinae gen. sp. = experiment: Effective dose for inhibition of [3H]- cholesterol absorption in a hamster model.; type: functional, Cricetulus griseus

## CC(=O)O[C@H]1CC2C3(C)COC(c4ccccc4)O[C@H]3CC[C@]2(C)C2[C@@H](O)c3c(cc(-c4cccnc4)oc3=O)O[C@@]21C (single isomer, unassigned)
[1]
  IC50: 0.12 µM

## CC(=O)O[C@H]1CC2C(C)(CO)[C@@H](O)CC[C@]2(C)C2[C@@H](O)c3c(cc(-c4cccnc4)oc3=O)O[C@@]21C (single isomer, unassigned)
[1]
  IC50: 100 µM

## CCCC(N)C(=O)O[C@H]1CC2[C@](C)(CC[C@H](OC(C)=O)[C@@]2(C)COC(C)=O)C2[C@@H](O)c3c(cc(-c4cccnc4)oc3=O)O[C@@]21C (stereo partly specified)
[1]
  IC50: 0.013 µM

## CCCO[C@H]1c2c(cc(-c3cccnc3)oc2=O)O[C@@]2(C)C1[C@@]1(C)CC[C@H](OC(C)=O)[C@@](C)(COC(C)=O)C1C[C@@H]2OC(C)=O (stereo partly specified)
[1]
  IC50: 23 µM

## CC(=O)OCC1(C)C2C[C@H](OC(C)=O)[C@@]3(C)Oc4cc(-c5cccnc5)oc(=O)c4[C@H](OC(C)=O)C3[C@@]2(C)CC[C@@H]1OC(C)=O (single isomer, unassigned)
[1]
  IC50: 5.1 µM

## CCCC(N)C(=O)O[C@H]1CC2[C@](C)(CC[C@@H]3OC(C)(C)OC[C@@]23C)C2[C@@H](O)c3c(cc(-c4cccnc4)oc3=O)O[C@@]21C (stereo partly specified)
[1]
  IC50: 0.086 µM

## CCCC(N)C(=O)O[C@H]1CC2[C@](C)(CC[C@@H]3OC(C)OC[C@@]23C)C2[C@@H](O)c3c(cc(-c4cccnc4)oc3=O)O[C@@]21C (stereo partly specified)
[1]
  IC50: 0.025 µM

## CC(=O)O[C@H]1CC[C@@]2(C)C(C[C@H](OC(C)=O)[C@@]3(C)Oc4cc(-c5cccnc5)oc(=O)c4[C@H](O)C23)[C@]1(C)COCC(C)C (stereo partly specified)
[1]
  IC50: 5.9 µM

## CC(=O)OC[C@@]1(C)C2C[C@H](OC(C)=O)[C@@]3(C)Oc4cc(-c5cccnc5)oc(=O)c4[C@H](O)C3[C@@]2(C)CC[C@@H]1OCC(C)C (stereo partly specified)
[1]
  IC50: 0.13 µM

## CC12COC(c3ccccc3)O[C@H]1CC[C@@]1(C)C2C[C@H](O)[C@@]2(C)Oc3cc(-c4cccnc4)oc(=O)c3[C@H](O)C12 (single isomer, unassigned)
[1]
  IC50: > 180 µM

## CCCC(N)C(=O)OC[C@@]1(C)C2C[C@H](OC(C)=O)[C@@]3(C)Oc4cc(-c5cccnc5)oc(=O)c4[C@H](O)C3[C@@]2(C)CC[C@@H]1OC(C)=O (stereo partly specified)
[1]
  IC50: > 8 µM

## CC(=O)O[C@H]1CC2C3(C)COC(C)(C)O[C@H]3CC[C@]2(C)C2[C@@H](O)c3c(cc(-c4cccnc4)oc3=O)O[C@@]21C (single isomer, unassigned)
[1]
  IC50: 1.2 µM

## CCCCO[C@H]1c2c(cc(-c3cccnc3)oc2=O)O[C@@]2(C)C1[C@@]1(C)CC[C@H](OC(C)=O)[C@@](C)(COC(C)=O)C1C[C@@H]2OC(C)=O (stereo partly specified)
[1]
  IC50: 2.4 µM

## CCCCO[C@H]1CC2[C@](C)(CC[C@H](OC(C)=O)[C@@]2(C)COC(C)=O)C2[C@@H](O)c3c(cc(-c4cccnc4)oc3=O)O[C@@]21C (stereo partly specified)
[1]
  IC50: 0.038 µM

## CC(=O)OC[C@@]1(C)C2C[C@H](OC(C)=O)[C@@]3(C)Oc4cc(-c5ccc[n+]([O-])c5)oc(=O)c4[C@H](O)C3[C@@]2(C)CC[C@@H]1OC(C)=O (stereo partly specified)
[1]
  IC50: 5.8 µM

## CCCC(N)C(=O)O[C@H]1CC2[C@](C)(CC[C@@H]3OC(c4ccccc4)OC[C@@]23C)C2[C@@H](O)c3c(cc(-c4cccnc4)oc3=O)O[C@@]21C (stereo partly specified)
[1]
  IC50: 0.006 µM

## CCCC(N)C(=O)O[C@H]1CC2[C@](C)(CC[C@@H]3OC(CC)OC[C@@]23C)C2[C@@H](O)c3c(cc(-c4cccnc4)oc3=O)O[C@@]21C (stereo partly specified)
[1]
  IC50: 0.033 µM

## CC(=O)O[C@H]1CC[C@@]2(C)C(C[C@H](OC(C)=O)[C@@]3(C)Oc4cc(-c5cccnc5)oc(=O)c4[C@H](O)C23)C1(C)COS(C)(=O)=O (single isomer, unassigned)
[1]
  IC50: 0.019 µM
Cricetinae gen. sp.
  ED50: 10 mg/kg

## CO[C@H]1c2c(cc(-c3cccnc3)oc2=O)O[C@@]2(C)C1[C@@]1(C)CC[C@H](OC(C)=O)C(C)(COC(C)=O)C1C[C@@H]2OC(C)=O (single isomer, unassigned)
[1]
  IC50: 38 µM

## CC1(CO)C2C[C@H](O)[C@@]3(C)Oc4cc(-c5cccnc5)oc(=O)c4[C@H](O)C3[C@@]2(C)CC[C@@H]1O (single isomer, unassigned)
[1]
  IC50: > 220 µM

## CCCC(N)C(=O)O[C@H]1CC2[C@](C)(CC[C@H](O)[C@@]2(C)CO)C2[C@@H](O)c3c(cc(-c4cccnc4)oc3=O)O[C@@]21C (stereo partly specified)
[1]
  IC50: 79 µM

## CC(=O)OCC1(C)C2C[C@H](OC(C)=O)[C@@]3(C)Oc4cc(-c5cccnc5)oc(=O)c4C(=O)C3[C@@]2(C)CC[C@@H]1OC(C)=O (single isomer, unassigned)
[1]
  IC50: 2.1 µM

## CC1(C)OCC2(C)C3C[C@H](O)[C@@]4(C)Oc5cc(-c6cccnc6)oc(=O)c5[C@H](O)C4[C@@]3(C)CC[C@@H]2O1 (single isomer, unassigned)
[1]
  IC50: > 200 µM

## CC(=O)OCC1(C)C2C[C@H](OCc3ccccc3)[C@@]3(C)Oc4cc(-c5cccnc5)oc(=O)c4[C@H](O)C3[C@@]2(C)CC[C@@H]1OC(C)=O (single isomer, unassigned)
[1]
  IC50: 7.4 µM

## CC(=O)OCC1(C)C2C[C@H](OS(C)(=O)=O)[C@@]3(C)Oc4cc(-c5cccnc5)oc(=O)c4[C@H](O)C3[C@@]2(C)CC[C@@H]1OC(C)=O (single isomer, unassigned)
[1]
  IC50: 1.8 µM

## CC(=O)OCC1(C)C2C[C@H](OS(=O)(=O)c3ccccc3)[C@@]3(C)Oc4cc(-c5cccnc5)oc(=O)c4[C@H](O)C3[C@@]2(C)CC[C@@H]1OC(C)=O (single isomer, unassigned)
[1]
  IC50: 3.1 µM

## CCCCOC[C@@]1(C)C2C[C@H](OC(C)=O)[C@@]3(C)Oc4cc(-c5cccnc5)oc(=O)c4[C@H](O)C3[C@@]2(C)CC[C@@H]1OC(C)=O (stereo partly specified)
[1]
  IC50: 4.2 µM

## CCCC(N)C(=O)O[C@H]1CC2[C@](C)(CC[C@@H]3OC4(CCCCC4)OC[C@@]23C)C2[C@@H](O)c3c(cc(-c4cccnc4)oc3=O)O[C@@]21C (stereo partly specified)
[1]
  IC50: 0.039 µM

## CC(=O)O[C@H]1CC[C@@]2(C)C(C[C@H](OC(C)=O)[C@@]3(C)Oc4cc(-c5cccnc5)oc(=O)c4[C@H](O)C23)C1(C)COS(=O)(=O)c1ccccc1 (single isomer, unassigned)
[1]
  IC50: 110 µM

## CCCC(N)C(=O)O[C@H]1CC2[C@](C)(CC[C@@H]3OC(=O)OC[C@@]23C)C2[C@@H](O)c3c(cc(-c4cccnc4)oc3=O)O[C@@]21C (stereo partly specified)
[1]
  IC50: 2.5 µM

## CC(=O)OCC1(C)C2C[C@H](OC(C)=O)[C@@]3(C)Oc4cc(-c5ccc[n+](C)c5)oc(=O)c4[C@H](O)C3[C@@]2(C)CC[C@@H]1OC(C)=O (single isomer, unassigned)
[1]
  IC50: 2.1 µM

## CC(=O)OC[C@@]1(C)C2C[C@H](OC(C)=O)[C@@]3(C)Oc4cc(-c5cccnc5)oc(=O)c4C=C3[C@@]2(C)CC[C@@H]1OC(C)=O (stereo partly specified)
[1]
  IC50: 5.8 µM

## CC(=O)OC[C@@]1(C)C2C[C@H](OCC(C)C)[C@@]3(C)Oc4cc(-c5cccnc5)oc(=O)c4[C@H](O)C3[C@@]2(C)CC[C@@H]1OC(C)=O (stereo partly specified)
[1]
  IC50: 0.13 µM

## CCCC(N)C(=O)O[C@H]1CC[C@@]2(C)C(C[C@H](OC(C)=O)[C@@]3(C)Oc4cc(-c5cccnc5)oc(=O)c4[C@H](O)C23)[C@]1(C)COC(C)=O (stereo partly specified)
[1]
  IC50: 0.62 µM

## CCCOC[C@@]1(C)C2C[C@H](OC(C)=O)[C@@]3(C)Oc4cc(-c5cccnc5)oc(=O)c4[C@H](O)C3[C@@]2(C)CC[C@@H]1OC(C)=O (stereo partly specified)
[1]
  IC50: 0.27 µM

## CCCO[C@H]1CC[C@@]2(C)C(C[C@H](OC(C)=O)[C@@]3(C)Oc4cc(-c5cccnc5)oc(=O)c4[C@H](O)C23)[C@]1(C)COC(C)=O (stereo partly specified)
[1]
  IC50: 0.14 µM

## CCCC(N)C(=O)O[C@H]1c2c(cc(-c3cccnc3)oc2=O)O[C@@]2(C)C1[C@@]1(C)CC[C@H](OC(C)=O)[C@@](C)(COC(C)=O)C1C[C@@H]2OC(C)=O (stereo partly specified)
[1]
  IC50: 16 µM

## CCCO[C@H]1CC2[C@](C)(CC[C@H](OC(C)=O)[C@@]2(C)COC(C)=O)C2[C@@H](O)c3c(cc(-c4cccnc4)oc3=O)O[C@@]21C (stereo partly specified)
[1]
  IC50: 0.067 µM

## CCCCO[C@H]1CC[C@@]2(C)C(C[C@H](OC(C)=O)[C@@]3(C)Oc4cc(-c5cccnc5)oc(=O)c4[C@H](O)C23)[C@]1(C)COC(C)=O (stereo partly specified)
[1]
  IC50: 0.2 µM

## CCCC(N)C(=O)O[C@H]1CC2[C@](C)(CC[C@@H]3OC(C)(c4ccccc4)OC[C@@]23C)C2[C@@H](O)c3c(cc(-c4cccnc4)oc3=O)O[C@@]21C (stereo partly specified)
[1]
  IC50: 0.91 µM
